From patent US10023592B2, “Bromodomain inhibitors” (Celgene Quanticel Research, Inc., priority 2013, dated 2018)

Biological target: BRD4(BD1) (Homo sapiens (Human), UniProt O60885)
Assay: In vitro enzyme inhibition assay (BRD4 AlphaScreen)
Type: binding
Conditions: in vitro enzyme inhibition assay
Protocol: His-tagged BRD4 was cloned, expressed and purified to homogeneity. […] BRD4 binding and inhibition was assessed by monitoring the interaction of biotinylated H4-tetraacetyl peptide (AnaSpec, H4K5/8/12/16(Ac), biotin-labeled) with the target using the AlphaScreen technology (Life Technologies). […] After 20 min incubation at room temp, Alpha streptavidin donor beads and Nickel Chelate acceptor beads were added to a final concentration of 5 μg/mL.
The ability of the compounds disclosed herein to inhibit BRD4 activity was quantified and the respective IC50 value was determined.

Row | IC50 [nM] | Compound
1 | < 500 | Cc1cc(-c2cc(OCC(F)(F)F)cc(S(C)(=O)=O)c2)cn(C)c1=O [Example 328, 1,3-dimethyl-5-[3-methylsulfonyl-5-(2,2,2-trifluoroethoxy)phenyl]pyridin-2-one]
2 | < 500 | Cc1cc(-c2cc(OCC3(C)COC3)cc(S(C)(=O)=O)c2)cn(C)c1=O [Example 329, 1,3-dimethyl-5-[3-[(3-methyloxetan-3-yl)methoxy]-5-methylsulfonylphenyl]pyridin-2-one]
3 | < 500 | Cc1cc(-c2cc(OCc3ccccn3)cc(S(C)(=O)=O)c2)cn(C)c1=O [Example 330, 1,3-dimethyl-5-[3-methylsulfonyl-5-(pyridin-2-ylmethoxy)phenyl]pyridin-2-one]
4 | < 500 | Cc1cc(-c2cc(OCc3ccc(F)cc3F)cc(S(C)(=O)=O)c2)cn(C)c1=O [Example 335, 5-[3-[(2,4-difluorophenyl)methoxy]-5-methylsulfonylphenyl]-1,3-dimethylpyridin-2-one]
5 | < 500 | Cc1cc(-c2cc(OCc3cccnc3)cc(S(C)(=O)=O)c2)cn(C)c1=O [Example 338, 1,3-dimethyl-5-[3-methylsulfonyl-5-(pyridin-3-ylmethoxy)phenyl]pyridin-2-one]
6 | < 500 | Cc1cc(-c2cc(OCc3cccc(C#N)c3)cc(S(C)(=O)=O)c2)cn(C)c1=O [Example 339, 3-[[3-(1,5-dimethyl-6-oxopyridin-3-yl)-5-methylsulfonylphenoxy]methyl]benzonitrile]
7 | < 500 | CC#CCOc1cc(-c2cc(C)c(=O)n(C)c2)cc(S(C)(=O)=O)c1 [Example 340, 5-(3-but-2-ynoxy-5-methylsulfonylphenyl)-1,3-dimethylpyridin-2-one]
8 | < 500 | Cn1cc(-c2cc(OCc3ccccc3)cc(S(C)(=O)=O)c2)c2ccccc2c1=O [Example 344, 2-methyl-4-(3-methylsulfonyl-5-phenylmethoxyphenyl)isoquinolin-1-one]
9 | < 500 | Cn1cc(-c2cc(OCC3CC3)cc(S(C)(=O)=O)c2)c2ccccc2c1=O [Example 345, 4-[3-(cyclopropylmethoxy)-5-methylsulfonylphenyl]-2-methylisoquinolin-1-one]
10 | < 500 | Cn1cc(-c2cc(OCC3CC3)cc(S(C)(=O)=O)c2)c2ccoc2c1=O [Example 350, 4-[3-(cyclopropylmethoxy)-5-methylsulfonylphenyl]-6-methylfuro[2,3-c]pyridine-7-one]
11 | < 500 | CCCc1cnc(NS(=O)(=O)CC)nc1-c1ccc(=O)n(C)c1 [Example 357, N-[4-(1-methyl-6-oxopyridin-3-yl)-5-propylpyrimidin-2-yl]ethanesulfonamide]
12 | < 500 | CCCc1cnc(NS(=O)(=O)CC)nc1-c1cc(Cl)c(=O)n(C)c1 [Example 359, N-[4-(5-chloro-1-methyl-6-oxopyridin-3-yl)-5-propylpyrimidin-2-yl]ethanesulfonamide]
13 | < 500 | CCCCc1cnc(NS(=O)(=O)CC)nc1-c1cc(Cl)c(=O)n(C)c1 [Example 360, N-[5-butyl-4-(5-chloro-1-methyl-6-oxopyridin-3-yl)pyrimidin-2-yl]ethanesulfonamide]

Continued, compound first:

Row | Compound | IC50 [nM]
14 | Cn1cc(-c2cc(S(C)(=O)=O)ccc2Oc2ccc(F)cc2F)c2ncncc2c1=O [Example 233, 8-[2-(2,4-difluorophenoxy)-5-methylsulfonylphenyl]-6-methylpyrido[4,3-d]pyrimidin-5-one] | 500 to 5000
15 | CCS(=O)(=O)c1ccc(Oc2ccc(F)cc2F)c(-c2cn(C)c(=O)c3cncnc23)c1 [Example 234, 8-[2-(2,4-difluorophenoxy)-5-ethylsulfonylphenyl]-6-methylpyrido[4,3-d]pyrimidin-5-one] | 500 to 5000
16 | Cn1cc(-c2cc(S(C)(=O)=O)ccc2OCC2CC2)c2ocnc2c1=O [Example 237, 7-[2-(cyclopropylmethoxy)-5-methylsulfonylphenyl]-5-methyl-[1,3]oxazolo[4,5-c]pyridin-4-one] | < 500
17 | Cn1cc(-c2cc(CS(C)(=O)=O)ccc2OCC(F)(F)F)c2ocnc2c1=O [Example 239, 5-methyl-7-[5-(methylsulfonylmethyl)-2-(2,2,2-trifluoroethoxy)phenyl]-[1,3]oxazolo[4,5-c]pyridin-4-one] | < 500
18 | CC(C)c1cc(-c2nc(S(C)(=O)=O)ncc2Oc2ccc(F)cc2F)cn(C)c1=O [Example 273, 5-[5-(2,4-difluorophenoxy)-2-methylsulfonylpyrimidin-4-yl]-1-methyl-3-propan-2-ylpyridin-2-one] | 500 to 5000
19 | Cn1cc(-c2cc(NS(C)(=O)=O)ccc2Oc2ccc(F)cc2F)cc(N2CCCC2)c1=O [Example 281, N-[4-(2,4-difluorophenoxy)-3-(1-methyl-6-oxo-5-pyrrolidin-1-ylpyridin-3-yl)phenyl]methanesulfonamide] | 500 to 5000
20 | CCS(=O)(=O)c1ccc(OCC2CC2)c(-c2cc(N3CCCC3)c(=O)n(C)c2)c1 [Example 282, 5-[2-(cyclopropylmethoxy)-5-ethylsulfonylphenyl]-1-methyl-3-pyrrolidin-1-ylpyridin-2-one] | 500 to 5000
21 | C#Cc1cc(-c2cc(S(C)(=O)=O)ccc2OCC2CC2)cn(C)c1=O [Example 285, 5-[2-(cyclopropylmethoxy)-5-methylsulfonylphenyl]-3-ethynyl-1-methylpyridin-2-one] | 500 to 5000
22 | CCCCn1cc(-c2nc(NS(C)(=O)=O)ncc2Oc2ccc(F)cc2F)cc(C)c1=O [Example 296, N-[4-(1-butyl-5-methyl-6-oxopyridin-3-yl)-5-(2,4-difluorophenoxy)pyrimidin-2-yl]methanesulfonamide] | < 500
23 | CCCCn1cc(-c2nc(NS(=O)(=O)CC)ncc2Oc2ccc(F)cc2F)cc(C)c1=O [Example 297, N-[4-(1-butyl-5-methyl-6-oxopyridin-3-yl)-5-(2,4-difluorophenoxy)pyrimidin-2-yl]ethanesulfonamide] | < 500
24 | Cc1cc(-c2nc(NS(C)(=O)=O)ncc2Oc2ccc(F)cc2F)cn(CC2CCC2)c1=O [Example 298, N-[4-[1-(cyclobutylmethyl)-5-methyl-6-oxopyridin-3-yl]-5-(2,4-difluorophenoxy)pyrimidin-2-yl]methanesulfonamide] | 500 to 5000
25 | CCS(=O)(=O)Nc1ncc(Oc2ccc(F)cc2F)c(-c2cc(C)c(=O)n(CC3CCC3)c2)n1 [Example 299, N-[4-[1-(cyclobutylmethyl)-5-methyl-6-oxopyridin-3-yl]-5-(2,4-difluorophenoxy)pyrimidin-2-yl]ethanesulfonamide] | 500 to 5000
26 | CCc1cnc(NS(=O)(=O)CC)nc1-c1cn(C)c(=O)c2ccccc12 [Example 300, N-[5-ethyl-4-(2-methyl-1-oxoisoquinolin-4-yl)pyrimidin-2-yl]ethanesulfonamide] | < 500
27 | CCCCc1cnc(S(C)(=O)=O)nc1-c1cn(C)c(=O)c2ccccc12 [Example 304, 4-(5-butyl-2-methylsulfonyl-pyrimidin-4-yl)-2-methylisoquinolin-1-one] | < 500
28 | CCCCc1cnc(S(C)(=O)=O)nc1-c1cc(C)c(=O)n(C)c1 [Example 305, 5-(5-butyl-2-methylsulfonylpyrimidin-4-yl)-1,3-dimethylpyridin-2-one] | < 500
29 | CCCc1cnc(NS(=O)(=O)CC)nc1-c1cn(C)c(=O)c2ccccc12 [Example 306, N-[4-(2-methyl-1-oxoisoquinolin-4-yl)-5-propylpyrimidin-2-yl] ethanesulfonamide] | < 500
30 | Cn1cc(-c2nc(S(C)(=O)=O)ncc2OCC2CC2)c2ccccc2c1=O [Example 311, 4-[5-(cyclopropylmethoxy)-2-methylsulfonylpyrimidin-4-yl]-2-methylisoquinolin-1-one] | < 500
31 | CCCc1ccc(S(C)(=O)=O)cc1-c1cn(C)c(=O)c2ccccc12 [Example 314, 2-methyl-4-(5-methylsulfonyl-2-propylphenyl)isoquinolin-1-one] | < 500
32 | Cn1cc(-c2cc(S(C)(=O)=O)ccc2CCC2CC2)ccc1=O [Example 315, 5-[2-(2-cyclopropylethyl)-5-methylsulfonylphenyl]-1-methylpyridin-2-one] | < 500
33 | CCc1ccc(S(C)(=O)=O)cc1-c1cn(C)c(=O)c2ccccc12 [Example 316, 4-(2-ethyl-5-methylsulfonylphenyl)-2-methylisoquinolin-1-one] | < 500
34 | CCCCc1ccc(S(C)(=O)=O)cc1-c1ccc(=O)n(C)c1 [Example 317, 5-(2-butyl-5-methylsulfonylphenyl)-1-methylpyridin-2-one] | < 500
35 | CCCCc1ccc(S(C)(=O)=O)cc1-c1cn(C)c(=O)c2ccccc12 [Example 318, 4-(2-butyl-5-methylsulfonylphenyl)-2-methylisoquinolin-1-one] | < 500
36 | Cn1cc(-c2cc(S(C)(=O)=O)ccc2CCC2CC2)c2ccccc2c1=O [Example 319, 4-[2-(2-cyclopropylethyl)-5-methylsulfonylphenyl]-2-methylisoquinolin-1-one] | < 500
37 | COc1ccc(COc2cc(-c3cc(C)c(=O)n(C)c3)cc(S(C)(=O)=O)c2)cc1 [Example 323, 5-[3-[(4-methoxyphenyl)methoxy]-5-methylsulfonylphenyl]-1,3-dimethylpyridin-2-one] | < 500
38 | COc1ccc(COc2cc(-c3cn(C)c(=O)c4ccccc34)cc(S(C)(=O)=O)c2)cc1 [Example 343, 4-[3-[(4-methoxyphenyl)methoxy]-5-methylsulfonylphenyl]-2-methylisoquinolin-1-one] | 500 to 5000
39 | CCS(=O)(=O)Nc1nc(Oc2ccc(F)cc2F)cc(-c2cc(C)c(=O)n(C)c2)n1 [Example 346, N-[4-(2,4-difluorophenoxy)-6-(1,5-dimethyl-6-oxopyridin-3-yl)pyrimidin-2-yl]ethanesulfonamide] | 500 to 5000
40 | CCS(=O)(=O)Nc1cc(-c2cc(C)c(=O)n(C)c2)nc(Oc2ccc(F)cc2F)n1 [Example 347, N-[2-(2,4-difluorophenoxy)-6-(1,5-dimethyl-6-oxopyridin-3-yl)pyrimidin-4-yl]ethanesulfonamide] | 500 to 5000
